Biological target: human LPAR1 (Homo sapiens (Human), UniProt Q92633)
Assay: LPAR1 intracellular calcium mobilization assay (antagonist mode, FLIPR)
Type: cell-based
Details: CHO-K1 EDG2 cells expressing human LPAR1, LPA 18:2 at EC80 (100 nM), test compound 0.5 nM to 10 μM

Sequence of human LPAR1 (Q92633 whole entry): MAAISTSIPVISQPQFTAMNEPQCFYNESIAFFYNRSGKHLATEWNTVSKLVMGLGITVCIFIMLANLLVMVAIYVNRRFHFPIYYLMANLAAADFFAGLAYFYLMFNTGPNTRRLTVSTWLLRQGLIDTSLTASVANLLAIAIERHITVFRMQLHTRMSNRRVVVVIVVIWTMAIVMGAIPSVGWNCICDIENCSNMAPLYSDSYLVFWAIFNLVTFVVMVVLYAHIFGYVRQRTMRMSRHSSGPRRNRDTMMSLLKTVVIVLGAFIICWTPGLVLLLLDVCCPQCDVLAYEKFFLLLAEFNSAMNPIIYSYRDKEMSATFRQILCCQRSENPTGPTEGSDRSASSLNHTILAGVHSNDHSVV

SMILES	EC50
COc1cc(C(=O)Nc2ccc(-c3nnn(C)c3NC(=O)O[C@H](C)c3cc(F)cnc3F)nc2)ccn1 [Compound 223, (R)-1-(2,5-difluoropyridin-3-yl)ethyl (4-(5-(2-methoxyisonicotinamido)pyridin-2-yl)-1-methyl-1H-1,2,3-triazol-5-yl)carbamate]	118 nM
C[C@@H](OC(=O)Nc1c(-c2ccc(NC(=O)c3ccnc(C(F)F)c3)cn2)nnn1C)c1cc(F)cnc1F [Compound 224, (R)-1-(2,5-difluoropyridin-3-yl)ethyl (4-(5-(2-(difluoromethyl)isonicotinamido)pyridin-2-yl)-1-methyl-1H-1,2,3-triazol-5-yl)carbamate]	40.2 nM
C[C@@H](OC(=O)Nc1c(-c2ccc(NC(=O)C3(C)CC(F)(F)C3)cn2)nnn1C)c1cc(F)cnc1F [Compound 226, (R)-1-(2,5-difluoropyridin-3-yl)ethyl (4-(5-(3,3-difluoro-1-methylcyclobutane-1-carboxamido)pyridin-2-yl)-1-methyl-1H-1,2,3-triazol-5-yl)carbamate]	184 nM
Cc1cnoc1C(=O)Nc1ccc(-c2nnn(C)c2NC(=O)O[C@H](C)c2cc(F)cnc2F)nc1 [Compound 227, (R)-1-(2,5-difluoropyridin-3-yl)ethyl (1-methyl-4-(5-(4-methylisoxazole-5-carboxamido)pyridin-2-yl)-1H-1,2,3-triazol-5-yl)carbamate]	206 nM
C[C@@H](OC(=O)Nc1c(-c2ccc(NC(=O)C3(C)CS(=O)(=O)C3)cn2)nnn1C)c1cc(F)cnc1F [Compound 228, (R)-1-(2,5-difluoropyridin-3-yl)ethyl (1-methyl-4-(5-(3-methyl-1,1-dioxidothietane-3-carboxamido)pyridin-2-yl)-1H-1,2,3-triazol-5-yl)carbamate]	403 nM
Cc1cc(C(=O)Nc2ccc(-c3nnn(C)c3NC(=O)O[C@H](C)c3cc(F)cnc3F)nc2)cnn1 [Compound 231, (R)-1-(2,5-difluoropyridin-3-yl)ethyl (1-methyl-4-(5-(6-methylpyridazine-4-carboxamido)pyridin-2-yl)-1H-1,2,3-triazol-5-yl)carbamate]	412 nM
C[C@@H](OC(=O)Nc1c(-c2ccc(NC(=O)c3ccnc(N)c3)cn2)nnn1C)c1cc(F)cnc1F [Compound 232, (R)-1-(2,5-difluoropyridin-3-yl)ethyl (4-(5-(2-aminoisonicotinamido)pyridin-2-yl)-1-methyl-1H-1,2,3-triazol-5-yl)carbamate]	1110 nM
Cc1ncc(C(=O)Nc2ccc(-c3nnn(C)c3NC(=O)O[C@H](C)c3cc(F)cnc3F)nc2)cn1 [Compound 234, (R)-1-(2,5-difluoropyridin-3-yl)ethyl (1-methyl-4-(5-(2-methylpyrimidine-5-carboxamido)pyridin-2-yl)-1H-1,2,3-triazol-5-yl)carbamate]	136 nM
C[C@@H](OC(=O)Nc1c(-c2ccc(NC(=O)c3cnc(C#N)nc3)cn2)nnn1C)c1cc(F)cnc1F [Compound 235, (R)-1-(2,5-difluoropyridin-3-yl)ethyl (4-(5-(2-cyanopyrimidine-5-carboxamido)pyridin-2-yl)-1-methyl-1H-1,2,3-triazol-5-yl)carbamate]	26.5 nM
C[C@@H](OC(=O)Nc1c(-c2ccc(NC(=O)c3ccc(=O)n(C)c3)cn2)nnn1C)c1cc(F)cnc1F [Compound 236, (R)-1-(2,5-difluoropyridin-3-yl)ethyl (1-methyl-4-(5-(1-methyl-6-oxo-1,6-dihydropyridine-3-carboxamido)pyridin-2-yl)-1H-1,2,3-triazol-5-yl)carbamate]	1660 nM
Cc1nonc1C(=O)Nc1ccc(-c2nnn(C)c2NC(=O)O[C@H](C)c2cc(F)cnc2F)nc1 [Compound 239, (R)-1-(2,5-difluoropyridin-3-yl)ethyl (1-methyl-4-(5-(4-methyl-1,2,5-oxadiazole-3-carboxamido)pyridin-2-yl)-1H-1,2,3-triazol-5-yl)carbamate]	62.3 nM
C[C@@H](OC(=O)Nc1c(-c2ccc(NC(=O)c3cc(F)cnc3F)cn2)nnn1C)c1cc(F)cnc1F [Compound 241, (R)-1-(2,5-difluoropyridin-3-yl)ethyl (4-(5-(2,5-difluoronicotinamido)pyridin-2-yl)-1-methyl-1H-1,2,3-triazol-5-yl)carbamate]	111 nM
C[C@@H](OC(=O)Nc1c(-c2ccc(NC(=O)c3ccc(C(F)(F)F)nc3)cn2)nnn1C)c1cc(F)cnc1F [Compound 242, (R)-1-(2,5-difluoropyridin-3-yl)ethyl (1-methyl-4-(5-(6-(trifluoromethyl)nicotinamido)pyridin-2-yl)-1H-1,2,3-triazol-5-yl)carbamate]	63.3 nM
C[C@@H](OC(=O)Nc1c(-c2ccc(NC(=O)c3ccnc(F)c3F)cn2)nnn1C)c1cc(F)cnc1F [Compound 243, (R)-1-(2,5-difluoropyridin-3-yl)ethyl (4-(5-(2,3-difluoroisonicotinamido)pyridin-2-yl)-1-methyl-1H-1,2,3-triazol-5-yl)carbamate]	71.9 nM
C[C@@H](OC(=O)Nc1c(-c2ccc(NC(=O)c3cc(F)nc(F)c3)cn2)nnn1C)c1cc(F)cnc1F [Compound 244, (R)-1-(2,5-difluoropyridin-3-yl)ethyl (4-(5-(2,6-difluoroisonicotinamido)pyridin-2-yl)-1-methyl-1H-1,2,3-triazol-5-yl)carbamate]	131 nM
C[C@@H](OC(=O)Nc1c(-c2ccc(NC(=O)[C@]3(C#N)C[C@H]3C(F)F)cn2)nnn1C)c1cc(F)cnc1F [Compound 245, (R)-1-(2,5-difluoropyridin-3-yl)ethyl (4-(5-((1R,2R)-1-cyano-2-(difluoromethyl)cyclopropane-1-carboxamido)pyridin-2-yl)-1-methyl-1H-1,2,3-triazol-5-yl)carbamate]	11.7 nM
C[C@@H](OC(=O)Nc1c(-c2ccc(NC(=O)[C@@]3(C#N)C[C@@H]3C(F)F)cn2)nnn1C)c1cc(F)cnc1F [Compound 246, (R)-1-(2,5-difluoropyridin-3-yl)ethyl (4-(5-((1S,2S)-1-cyano-2-(difluoromethyl)cyclopropane-1-carboxamido)pyridin-2-yl)-1-methyl-1H-1,2,3-triazol-5-yl)carbamate]	103 nM
Cc1nccc(C(=O)Nc2ccc(-c3nnn(C)c3NC(=O)O[C@H](C)c3cc(F)cnc3F)nc2)n1 [Compound 249, (R)-1-(2,5-difluoropyridin-3-yl)ethyl (1-methyl-4-(5-(2-methylpyrimidine-4-carboxamido)pyridin-2-yl)-1H-1,2,3-triazol-5-yl)carbamate]	537 nM
C[C@@H](OC(=O)Nc1c(-c2ccc(NC(=O)c3ccc(Cl)nn3)cn2)nnn1C)c1cc(F)cnc1F [Compound 250, (R)-1-(2,5-difluoropyridin-3-yl)ethyl (4-(5-(6-chloropyridazine-3-carboxamido)pyridin-2-yl)-1-methyl-1H-1,2,3-triazol-5-yl)carbamate]	276 nM
C[C@@H](OC(=O)Nc1c(-c2ccc(NC(=O)c3cnc(C(F)(F)F)nc3)cn2)nnn1C)c1cc(F)cnc1F [Compound 251, (R)-1-(2,5-difluoropyridin-3-yl)ethyl (1-methyl-4-(5-(2-(trifluoromethyl)pyrimidine-5-carboxamido)pyridin-2-yl)-1H-1,2,3-triazol-5-yl)carbamate]	38.5 nM

Source: patent publication US11912686B2 (Gilead Sciences, Inc., priority 2020, dated 2024)
